According to paper PMC8599534, “Isoprenylated Flavonoids as Cav3.1 Low Voltage-Gated Ca^2+ Channel Inhibitors from Salvia digitaloides” (Natural Products and Bioprospecting, 2021):
pIC50: −log10 of the molar value.

Target: T1, Cav3.1 low voltage-gated Ca^2+ channel (Homo sapiens, UniProt O43497)
T1 construct: gene CACNA1G
Assay: electrophysiology: peak-current inhibition in HEK […] cells expressing human Cav3.[…]
Assay type: cell-based

T1 sequence (O43497 whole entry): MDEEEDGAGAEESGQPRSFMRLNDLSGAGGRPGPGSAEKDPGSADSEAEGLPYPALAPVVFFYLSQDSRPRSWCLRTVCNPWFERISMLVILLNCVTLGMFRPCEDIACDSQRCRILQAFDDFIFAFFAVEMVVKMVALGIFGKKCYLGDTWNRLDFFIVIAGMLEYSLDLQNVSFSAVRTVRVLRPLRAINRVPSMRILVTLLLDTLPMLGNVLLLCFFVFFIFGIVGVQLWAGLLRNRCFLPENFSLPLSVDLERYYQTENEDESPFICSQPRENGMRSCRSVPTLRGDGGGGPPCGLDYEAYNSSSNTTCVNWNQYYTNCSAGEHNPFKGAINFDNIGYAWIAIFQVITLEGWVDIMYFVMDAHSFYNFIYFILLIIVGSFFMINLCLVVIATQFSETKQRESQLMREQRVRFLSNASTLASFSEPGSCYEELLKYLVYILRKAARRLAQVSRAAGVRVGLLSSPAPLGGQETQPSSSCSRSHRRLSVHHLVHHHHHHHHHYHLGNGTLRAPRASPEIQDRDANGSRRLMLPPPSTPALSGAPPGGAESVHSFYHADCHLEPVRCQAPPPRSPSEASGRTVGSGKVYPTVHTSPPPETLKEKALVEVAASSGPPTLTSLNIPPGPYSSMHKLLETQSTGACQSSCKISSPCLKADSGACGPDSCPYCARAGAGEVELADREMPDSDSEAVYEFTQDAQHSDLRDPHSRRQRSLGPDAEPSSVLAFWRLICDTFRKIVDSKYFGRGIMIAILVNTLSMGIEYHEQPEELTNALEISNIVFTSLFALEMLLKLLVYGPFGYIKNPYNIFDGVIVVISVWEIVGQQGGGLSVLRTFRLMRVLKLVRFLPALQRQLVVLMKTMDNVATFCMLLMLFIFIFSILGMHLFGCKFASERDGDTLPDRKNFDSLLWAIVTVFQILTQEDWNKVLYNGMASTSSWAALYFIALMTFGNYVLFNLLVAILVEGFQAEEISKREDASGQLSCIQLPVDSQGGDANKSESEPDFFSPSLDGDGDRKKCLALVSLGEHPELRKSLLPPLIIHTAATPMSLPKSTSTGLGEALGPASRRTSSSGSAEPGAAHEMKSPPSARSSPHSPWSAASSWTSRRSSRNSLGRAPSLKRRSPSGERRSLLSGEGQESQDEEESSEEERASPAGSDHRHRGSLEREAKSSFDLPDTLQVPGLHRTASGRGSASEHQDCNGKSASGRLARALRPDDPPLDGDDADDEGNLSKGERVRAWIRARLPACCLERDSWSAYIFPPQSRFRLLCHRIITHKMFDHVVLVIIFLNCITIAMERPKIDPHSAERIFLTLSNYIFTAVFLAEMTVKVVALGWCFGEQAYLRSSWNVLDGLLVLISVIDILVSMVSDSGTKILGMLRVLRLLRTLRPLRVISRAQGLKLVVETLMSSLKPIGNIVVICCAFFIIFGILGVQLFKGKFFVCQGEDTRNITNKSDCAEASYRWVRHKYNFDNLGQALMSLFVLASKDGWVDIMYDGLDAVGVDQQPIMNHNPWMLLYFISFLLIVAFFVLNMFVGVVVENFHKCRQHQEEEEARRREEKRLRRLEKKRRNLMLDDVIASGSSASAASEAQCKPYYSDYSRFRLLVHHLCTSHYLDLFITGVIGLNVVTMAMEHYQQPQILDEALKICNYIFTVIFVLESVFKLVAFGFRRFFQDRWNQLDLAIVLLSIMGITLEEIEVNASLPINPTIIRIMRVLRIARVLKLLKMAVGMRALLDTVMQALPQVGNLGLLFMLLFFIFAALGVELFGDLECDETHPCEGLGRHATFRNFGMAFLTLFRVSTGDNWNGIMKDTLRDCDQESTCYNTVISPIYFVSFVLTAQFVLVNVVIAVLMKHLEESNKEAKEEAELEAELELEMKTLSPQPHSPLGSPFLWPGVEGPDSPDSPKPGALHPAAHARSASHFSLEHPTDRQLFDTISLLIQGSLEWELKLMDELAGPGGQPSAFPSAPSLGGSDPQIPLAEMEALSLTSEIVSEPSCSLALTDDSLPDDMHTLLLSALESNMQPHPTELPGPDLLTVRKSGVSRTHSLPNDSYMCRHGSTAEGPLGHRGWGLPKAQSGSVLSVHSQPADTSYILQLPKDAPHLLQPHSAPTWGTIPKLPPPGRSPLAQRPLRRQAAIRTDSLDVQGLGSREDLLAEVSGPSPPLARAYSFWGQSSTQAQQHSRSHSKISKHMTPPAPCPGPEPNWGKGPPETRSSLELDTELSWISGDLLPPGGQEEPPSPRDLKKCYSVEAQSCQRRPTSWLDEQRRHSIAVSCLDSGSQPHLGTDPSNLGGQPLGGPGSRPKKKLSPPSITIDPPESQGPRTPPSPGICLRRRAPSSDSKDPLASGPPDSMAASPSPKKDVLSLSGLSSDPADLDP

pIC50: 5.46
SMILES: CC(C)=CCc1c([C@@H]2CC(=O)c3c(O)cc(O)c(CC=C(C)C)c3O2)cc2c(c1O)OC(C)(C)C=C2 [compound 2, 5,7,3′-trihydroxy-4′,5′-(2⁗,2⁗-dimethylpyran)-8,2′-di(3-methyl-2-butenyl)-(2S)-flavanone]
